{"source": "patent EP0503079A1", "about": "“PYRIDAZINONE-SUBSTITUTED ETHYNYLPHENYL DERIVATIVE AND REMEDY FOR CIRCULATORY ORGAN DISEASE CONTAINING THE SAME AS ACTIVE INGREDIENT” (KAKEN PHARMACEUTICAL CO., LTD., priority 1990, dated 1992)", "key": {"[1]": {"test_system": "Aortae abdominalis of male Wister rats", "assay": "Anti-norepinephrine activity on rat abdominal aorta strip preparations (auto-Magnus apparatus)", "conditions": "tension by norepinephrine (10⁻⁷M) regarded as 100", "protocol": "Aortae abdominalis of male Wister rats (8-12 weeks) were delivered and cut in spiral-shape to be strip preparations. Each test compounds was disolved in DMSO. Then, the solution was diluted with distilled water and prepared to be desired concentration. Using an auto-Magnus apparatus, as to the vasoconstriction after adding norepinephrine, contractive forces were measured under the existence of the test compounds."}, "Slc: ddy male mice [2]": {"test_system": "Slc: ddy male mice", "assay": "Activity on stress ulcers (restraint and water immersion)", "type": "in vivo", "conditions": "length of ulcer in glandular stomach; 30 mg/kg orally; restrained and immersed in water of 23°C for 7 hours", "protocol": "In each group, 5 Slc: ddy male mice (6 weeks) were employed. Each test compound was kneaded with Tween-80 followed by adding a 0.5 % solution of gum arabic to prepare 30 mg/10 mℓ solution (solution containing 1.5 % Tween-80 and 0.5 % gum arabic). Then, the preparation was administered orally in a rate of 30 mg/kg. After the administration, the mice were restrained and immersed in a water tank of 23°C for 7 hours. Then, length of the ulcer in the glandular stomach was measured by a stereoscopic microscope (x 10)."}, "Slc: ddy male mice [3]": {"test_system": "Slc: ddy male mice", "assay": "Acute toxicity", "type": "in vivo", "conditions": "oral administration, death rate after 7 days", "protocol": "In each group, 6 Slc: ddy male mice weighing 25 to 29 g (6 weeks) were employed. Each compound was administered orally thereto and a value of acute toxicity was evaluated with death rate after 7 days."}, "Slc-ddy male mice": {"test_system": "Slc-ddy male mice", "assay": "Activity on hypoxia induced in decapitation of mice (gasping time)", "type": "in vivo", "set-up": "dose or concentration left out as unconfirmed", "conditions": "gasping time after decapitation, one hour after oral administration", "protocol": "In each group, 3 Slc-ddy male mice (4 weeks) were employed. Each test compound was suspended or dissolved in a 0.5 % methyl cellulose solution. After the concentration was adjusted, the dose became […], the solution was administered orally. One hour after the administration, mice were decapitated and gasping time was measured.\n(§1) Inhibition rate was calculated by the following formula. [formula]"}, "platelet aggregation": {"test_system": "platelet aggregation", "assay": "Inhibitory activity on platelet aggregation (turbidimetry)", "type": "cell-based, New Zealand White male rabbits", "conditions": "for Inhibition rate (%) ADP aggregation: 0.6 µg/mℓ ADP; for Inhibition rate (%) PAF aggregation: 5 x 10⁻⁹M PAF; for Inhibition rate (%) Collagen aggregation: 2 µg/mℓ collagen", "protocol": "Blood was exsanguinated from New Zealand White male rabbits weighing from 2.5 to 3.0 kg and subjected to the test. Each test compound was dissolved in ethanol and prepared to be 1 x 10⁻⁵, 1 x 10⁻⁶ or 1 x 10⁻⁷M respectively. Each aggregation response was measured by turbidimetry. Concentration of aggregating agent was 2 µg/mℓ of collagen, 0.6 µg/mℓ of adenosine 5'-diphosphate (ADP) or 5 x 10⁻⁹M of platelet aggregating factor (PAF).\nas §1"}}}
{"substance": "2,6-dimethyl-4-(3-ethynylphenyl)-3-methoxycarbonyl-5-{4-(6-oxo-1,4,5,6-tetrahydropyridazinon-3-yl)phenyl}aminocarbonyl-1,4-dihydropyridine [Compound 1]", "values": [{"measurement": "Contractive force", "setting": "[1]; compound 10⁻⁷ M", "result": 15.7}, {"measurement": "Contractive force", "setting": "[1]; compound 10⁻⁸ M", "result": 87.4}, {"measurement": "Contractive force", "setting": "[1]; compound 10⁻⁹ M", "result": 102.8}, {"measurement": "Inhibition rate (%)", "setting": "Slc: ddy male mice [2]", "result": 83.0, "unit": "%"}, {"measurement": "LD₅₀", "setting": "Slc: ddy male mice [3]", "result": 1000, "unit": "mg/kg"}, {"measurement": "Inhibition rate (%)", "setting": "Slc-ddy male mice", "result": 28.6, "unit": "%"}, {"measurement": "Inhibition rate (%) ADP aggregation", "setting": "platelet aggregation; compound 10⁻⁵ M", "result": 94, "unit": "%"}, {"measurement": "Inhibition rate (%) PAF aggregation", "setting": "platelet aggregation; compound 10⁻⁵ M", "result": 64, "unit": "%"}, {"measurement": "Inhibition rate (%) ADP aggregation", "setting": "platelet aggregation; compound 10⁻⁶ M", "result": 70, "unit": "%"}, {"measurement": "Inhibition rate (%) Collagen aggregation", "setting": "platelet aggregation; compound 10⁻⁶ M", "result": 94, "unit": "%"}, {"measurement": "Inhibition rate (%) ADP aggregation", "setting": "platelet aggregation; compound 10⁻⁷ M", "result": 21, "unit": "%"}, {"measurement": "Inhibition rate (%) Collagen aggregation", "setting": "platelet aggregation; compound 10⁻⁷ M", "result": 21, "unit": "%"}]}
{"substance": "2,6-dimethyl-4-{3-(3-hydroxy-3-methyl)-1-butyn-1-yl)}phenyl-3-methoxycarbonyl-5-{4-(6-oxo-1,4,5,6-tetrahydropyridazinon-3-yl)phenyl}aminocarbonyl-1,4-dihydropyridine [Compound 7]", "values": [{"measurement": "Contractive force", "setting": "[1]; compound 10⁻⁷ M", "result": 16.3}, {"measurement": "Contractive force", "setting": "[1]; compound 10⁻⁸ M", "result": 89.2}, {"measurement": "Contractive force", "setting": "[1]; compound 10⁻⁹ M", "result": 100.3}, {"measurement": "Inhibition rate (%)", "setting": "Slc: ddy male mice [2]", "result": 88.8, "unit": "%"}, {"measurement": "LD₅₀", "setting": "Slc: ddy male mice [3]", "result": 800, "unit": "mg/kg"}, {"measurement": "Inhibition rate (%)", "setting": "Slc-ddy male mice", "result": 19.1, "unit": "%"}, {"measurement": "Inhibition rate (%) ADP aggregation", "setting": "platelet aggregation; compound 10⁻⁵ M", "result": 89, "unit": "%"}, {"measurement": "Inhibition rate (%) PAF aggregation", "setting": "platelet aggregation; compound 10⁻⁵ M", "result": 40, "unit": "%"}, {"measurement": "Inhibition rate (%) ADP aggregation", "setting": "platelet aggregation; compound 10⁻⁶ M", "result": 73, "unit": "%"}, {"measurement": "Inhibition rate (%) Collagen aggregation", "setting": "platelet aggregation; compound 10⁻⁶ M", "result": 92, "unit": "%"}, {"measurement": "Inhibition rate (%) ADP aggregation", "setting": "platelet aggregation; compound 10⁻⁷ M", "result": 24, "unit": "%"}, {"measurement": "Inhibition rate (%) Collagen aggregation", "setting": "platelet aggregation; compound 10⁻⁷ M", "result": 25, "unit": "%"}]}
